In patent publication US9328138B2 (priority 2011, dated 2016):
“And” between values parts separate entries of the source, which are not always exact repeats. Equal entries are not always repeated.

Assays:
[1] = biological target: HCV NS3 protease genotype 3a (3A-1) (Hepatitis C virus genotype 3a, UniProt Q81258); assay: HCV NS3 protease time-resolved fluorescence (TRF) assay, genotype 3a; format: biochemical; conditions: Ki 3a
Summary of the method: (§1)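 Inhibitor titrations are mixed with NS3/NS4A in pH 7.5 HEPES buffer containing 10 mM DTT and 15% glycerol for 10 min before substrate (25 nM final) is added. After 6 h at room temperature, delayed fluorescence is read and fitted to a four-parameter curve for IC50.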

[2] = biological target: T1, HCV genotype 1b (BK) NS3 modified enzyme with a R155K mutation (Hepatitis C virus genotype 1b, UniProt P26663, R1181K); assay: HCV NS3 protease time-resolved fluorescence (TRF) assay, genotype 1b R155K; format: biochemical; conditions: Ki 1b R155K
T1 construct: HCV genotype 1b (BK) NS3 modified enzyme
Summary of the method: as §1

[3] = genotype 1b (BK) NS3 R155K, single value

`C=C[C@@H]1C[C@]1(NC(=O)[C@@H]1C[C@@H]2CN1C(=O)[C@H](C(C)(C)C)NC(=O)O[C@@H]1CCC[C@H]1CC/C=C/Cc1c(nc3ccccc3c1OCCCOC)O2)C(=O)NS(=O)(=O)C1(C)CC1` [Example 90, (3aR,7S,10S,12R,21E,24aS)-7-tert-butyl-N-[(1R,2S)-2-ethenyl-1-{[(1-methylcyclopropyl)sulfonyl]carbamoyl}cyclopropyl]-19-(3-methoxypropoxy)-5,8-dioxo-1,2,3,3a,5,6,7,8,11,12,20,23,24,24a-tetradecahydro-10H-9,12-methanocyclopenta[18,19][1,10,3,6] dioxadiazacyclononadecino [11,12-b]quinoline-10-carboxamide] showed a Ki [1] of 1.6 nM and a Ki [2, 3] of 0.15 nM.
`C=C[C@@H]1C[C@]1(NC(=O)[C@@H]1C[C@@H]2CN1C(=O)[C@H](C(C)(C)C)NC(=O)O[C@@H]1CCC[C@H]1CCCCCc1c(nc3ccccc3c1OCCN1CCOCC1)O2)C(=O)NS(=O)(=O)N1CCCC1` [Example 109, (3aR,7S,10S,12R,24aR)-7-tert-butyl-N-{(1R,2S)-2-ethenyl-1-[(pyrrolidin-1-ylsulfonyl)carbamoyl]cyclopropyl}-19-[2-(morpholin-4-yl)ethoxy]-5,8-dioxo-1,2,3,3a,5,6,7,8,11,12,20,21,22,23,24,24a-hexadecahydro-10H-9,12-methano cyclopenta[18,19][1,10,3,6] dioxadiazacyclononadecino [11,12-b]quinoline-10-carboxamide] was tested, and the Ki [1] was 122 nM and the Ki [2, 3] was 4.1 nM.
`C=C[C@@H]1C[C@]1(NC(=O)[C@@H]1C[C@@H]2CN1C(=O)[C@H](C1(C)CCCCC1)NC(=O)O[C@@H]1C[C@H]1CCCCCc1c(nc3ccccc3c1OCCN1CCOCC1)O2)C(=O)NS(=O)(=O)C1(C)CC1` [Example 123, (1aR,5S,8S,10R,22aR)-N-[(1R,2S)-2-ethenyl-1-{[(1-methylcyclopropyl)sulfonyl]carbamoyl}cyclopropyl]-5-(1-methylcyclohexyl)-17-[2-(morpholin-4-yl)ethoxy]-3,6-dioxo-1,1a,3,4,5,6,9,10,18,19,20,21,22,22a-tetradecahydro-8H-7,10-methanocyclopropa[18,19] [1,10,3,6]dioxadiazacyclononadecino [11,12-b]quinoline-8-carboxamide] showed a Ki [1] of 6.1 nM and a Ki [2, 3] of 0.49 nM.
In the case of `C=C[C@@H]1C[C@]1(NC(=O)[C@@H]1C[C@@H]2CN1C(=O)[C@H](C1CCCCC1)NC(=O)O[C@@H]1C[C@H]1CCCCCc1c(nc3ccccc3c1OCCCNC1CC(F)(F)C1)O2)C(=O)NS(=O)(=O)C1(C)CC1` [Example 243, (1aR,5S,8S,10R,22aR)-5-cyclohexyl-17-{3-[(3,3-difluorocyclobutyl)amino]propoxy}-N-[(1R,2S)-2-ethenyl-1-{[(1-methylcyclopropyl)sulfonyl]carbamoyl}cyclopropyl]-3,6-dioxo-1,1a,3,4,5,6,9,10,18,19,20,21,22,22a-tetradecahydro-8H-7,10-methanocyclopropa[18,19][1,10,3,6]dioxadiazacyclononadecino[11,12-b]quinoline-8-carboxamide], the Ki [1] is reported as 3.31 nM, the Ki ([2]; first of two values printed in the cell (not explained)) is reported as 0.033 nM and the Ki ([2]; second of two values printed in the cell (not explained)) is reported as 0.275 nM.
`C=C[C@@H]1C[C@]1(NC(=O)[C@@H]1C[C@@H]2CN1C(=O)[C@H](C(C)(C)C)NC(=O)O[C@@H]1C[C@H]1CCCCCc1c(nc3ccccc3c1OCCN1CCC(C)(O)CC1)O2)C(=O)NS(=O)(=O)C1(C)CC1` [Example 175, (1aR,5S,8S,10R,22aR)-5-tert-butyl-N-[(1R,2S)-2-ethenyl-1-{[(1-methylcyclopropyl)sulfonyl]carbamoyl}cyclopropyl]-17-[2-(4-hydroxy-4-methylpiperidin-1-yl)ethoxy]-3,6-dioxo-1,1a,3,4,5,6,9,10,18,19,20,21,22,22a-tetradeca hydro-8H-7,10-methanocyclopropa[18,19][1,10,3,6] dioxadiazacyclononadecino[11,12-b] quinoline-8-carboxamide] was tested, and the Ki [1] was 0.89 nM and the Ki [2, 3] was 0.091 nM.
`CCOc1c2c(nc3ccccc13)O[C@@H]1C[C@@H](C(=O)N[C@]3(C(=O)NS(=O)(=O)C4CC4)C[C@H]3CC)N(C1)C(=O)[C@H](C1CCCC1)NC(=O)O[C@@H]1CCC[C@H]1CC/C=C/C2` [Example 2, (3aR,7S,10S,12R,21E,24aS)-7-cyclopentyl-N-{(1R,2R)-1-[(cyclopropylsulfonyl)carbamoyl]-2-ethylcyclopropyl}-19-ethoxy-5,8-dioxo-1,2,3,3a,5,6,7,8,11,12,20,23,24,24a-tetradecahydro-10H-9,12-methanocyclopenta[18,19][1,10,3,6] dioxadiazacyclononadecino[11,12-b] quinoline-10-carboxamide] was tested, and the Ki [1] was 31 nM and the Ki [2, 3] was 2.7 nM.
For `C=C[C@@H]1C[C@]1(NC(=O)[C@@H]1C[C@@H]2CN1C(=O)[C@H](C(C)(C)C)NC(=O)O[C@@H]1CCC[C@H]1CC/C=C/Cc1c(nc3ccccc3c1OCCCN1CCOCC1)O2)C(=O)NS(=O)(=O)C1(C)CC1` [Example 91, (3aR,7S,10S,12R,21E,24aS)-7-tert-butyl-N-[(1R,2S)-2-ethenyl-1-{[(1-methylcyclopropyl)sulfonyl]carbamoyl}cyclopropyl]-19-[3-(morpholin-4-yl)propoxy]-5,8-dioxo-1,2,3,3a,5,6,7,8,11,12,20,23,24,24a-tetradecahydro-10H-9,12-methanocyclopenta[18,19][1,10,3,6] dioxadiazacyclononadecino[11,12-b] quinoline-10-carboxamide], the Ki [1] was 1 nM and the Ki [2, 3] was 0.16 nM.
With `C=C[C@@H]1C[C@]1(NC(=O)[C@@H]1C[C@@H]2CN1C(=O)[C@H](C(C)(C)C)NC(=O)O[C@@H]1CCC[C@H]1CCCCCc1c(nc3ccccc3c1OCCN(C)C)O2)C(=O)NS(=O)(=O)C1(CCN2CCOCC2)CC1` [Example 103, (3aR,7S,10S,12R,24aR)-7-tert-butyl-19-[2-(dimethylamino)ethoxy]-N-{(1R,2S)-2-ethenyl-1-[({1-[2-(morpholin-4-yl)ethyl]cyclopropyl}sulfonyl)carbamoyl]cyclopropyl}-5,8-dioxo-1,2,3,3a,5,6,7,8,11,12,20,21, 22,23,24,24a-hexadeca hydro-10H-9,12-methanocyclo-penta[18,19][1,10,3,6] dioxadiazacyclononadecino [11,12-b]quinoline-10-carboxamide] the Ki [1] was 8.5 nM and 1.1 nM and the Ki [2, 3] was 0.77 nM and 0.13 nM.
In the case of `C=C[C@@H]1C[C@]1(NC(=O)[C@@H]1C[C@@H]2CN1C(=O)[C@H](C(C)(C)C)NC(=O)O[C@@H]1C[C@H]1CCCCCc1c(nc3cc(C(C)C)ccc3c1OCCCNC(C)C)O2)C(=O)NS(=O)(=O)C1(C)CC1` [Example 160, (1aR,5S,8S,10R,22aR)-5-tert-butyl-N-[(1R,2S)-2-ethenyl-1-{[(1-methylcyclopropyl)sulfonyl]carbamoyl}cyclopropyl]-3,6-dioxo-14-(propan-2-yl)-17-[3-(propan-2-ylamino)propoxy]-1,1a,3,4,5,6,9, 10,18,19,20,21,22,22a-tetradeca hydro-8H-7,10-methanocyclopropa[18,19] [1,10,3,6]dioxadiazacyclononadecino [11,12-b]quinoline-8-carboxamide], the Ki [1] is reported as 0.44 nM and the Ki [2, 3] is reported as 0.053 nM.
